We go through four sequences from patent US20240067686A1, “NOVEL PEPTIDE CAPABLE OF INHIBITING TGF-ß SIGNALING AND USE THEREOF” (Korea Institute of Science and Technology, priority 2020, published 2024).

The test system of assay [1] is TGF-β cytokine released from Aspc1 cells. Briefly: ELISA of TGF-β cytokine concentration in Aspc1 culture media. The format is cell-based. As to conditions: 50 ng/ml TGF-β plus peptide, 48 hours, FIG. 6. As to the method:
Specifically, the pancreatic cancer cell line Aspc1 was seeded in a 96-well plate at a density of 2×10^4 cells/well, cultured for one day, and then treated with 50 ng/ml of TGF-β or TGF-β plus inhibitor (candidate peptide and control peptide) for 48 hours, and then the concentrations of the TGF-β cytokine in the cancer cell culture media were analyzed by ELISA technique using a TGF-β detection ELISA kit. The concentration of the extracellularly released TGF-β cytokine was determined by measuring the absorbance with a multiplate reader, and the results were graphed.
Background: In an ELISA, binding on a coated surface is turned into a signal by an enzyme label.

A further assay concerns pSmad2/3 in Aspc1 cells. Description: Western blotting of pSmad2/3 expression level in Aspc1 cells. In kind it is cell-based. The settings on record: TGF-β plus candidate peptide, 24 hours, FIG. 7. As to the method:
Specifically, in order to analyze the time-dependent expression of phospho-Smad2/3 in cells by Western blotting assay, each of pancreatic cancer cell lines Bxpc3 and Aspc1 was treated with TGF-β cytokine at 50 ng/ml, and then cells obtained at different times were lysed by adding a cell lysis buffer containing a protease inhibitor (Thermo Scientific), and then sampled, thus preparing samples for Western blotting. Each of the samples was electrophoresed on SDS-PAGE gel, transferred to nitrocellulose membranes, and then blocked using skim milk powder. […] Then, the membranes were visualized by chemiluminescence using a Western ECL substrate (Thermo Scientific), and the obtained luminescence images were analyzed with Chemidoc (BioRad).
Specifically, each of the pancreatic cancer cell lines Aspc1, Bxpc3 and Panc1 was seeded in a 6-well plate at a density of 1×10^6 cells/well and cultured for one day. The next day, the cells were treated with TGF-β or TGF-β plus candidate peptide for 24 hours (control: 15% ACN—candidate peptide solvent, DMSO—P144 peptide solvent, P144), and the expression levels of pSmad2/3 and total Smad2/3 were analyzed by the Western blotting method described in Example 2.
A general note: A western blot detects proteins with antibodies after separation by electrophoresis.

As to “FCLGPCPYIWCLDTF (P5) [candidate peptide derived from TGF-β, target TGFβRI/II]”, in assay [1], the “inhibition of extracellular release of TGF-β cytokine” value (shortened to “inhibition … of TGF-β cytokine”) is listed as “directly inhibited the extracellular release of TGF-β cytokine”. With “FCLGPCPYIWCLDTVLSL (P7) [candidate peptide derived from TGF-β, target TGFβRI/II]”, the “inhibition … of TGF-β cytokine” value in assay [1] is “directly inhibited the extracellular release of TGF-β cytokine”. As to “FCLGPCPYIWSLDTVLSL (P6) [candidate peptide derived from TGF-β, target TGFβRI/II]”, the “inhibition … of TGF-β cytokine” value in assay [1] is given as “directly inhibited the extracellular release of TGF-β cytokine”. In the assay with pSmad2/3 in Aspc1 cells, the “inhibition of expression level of pSmad2/3” value is recorded as “best ability to inhibit the expression level of pSmad2/3”. As for “TIVYYVVIKPKVEQ (P14) [candidate peptide derived from TGF-β, target TGFβRII]”, the “inhibition … of TGF-β cytokine” value in assay [1] is given as “directly inhibited the extracellular release of TGF-β cytokine”.
